Test results as given in PMC3664696 (The Journal of General Physiology, 2013).

Target: T1, ASCT2 (alanine serine cysteine transporter 2) (Rattus norvegicus, UniProt D3ZJ25)
T1 sequence (D3ZJ25 1-555): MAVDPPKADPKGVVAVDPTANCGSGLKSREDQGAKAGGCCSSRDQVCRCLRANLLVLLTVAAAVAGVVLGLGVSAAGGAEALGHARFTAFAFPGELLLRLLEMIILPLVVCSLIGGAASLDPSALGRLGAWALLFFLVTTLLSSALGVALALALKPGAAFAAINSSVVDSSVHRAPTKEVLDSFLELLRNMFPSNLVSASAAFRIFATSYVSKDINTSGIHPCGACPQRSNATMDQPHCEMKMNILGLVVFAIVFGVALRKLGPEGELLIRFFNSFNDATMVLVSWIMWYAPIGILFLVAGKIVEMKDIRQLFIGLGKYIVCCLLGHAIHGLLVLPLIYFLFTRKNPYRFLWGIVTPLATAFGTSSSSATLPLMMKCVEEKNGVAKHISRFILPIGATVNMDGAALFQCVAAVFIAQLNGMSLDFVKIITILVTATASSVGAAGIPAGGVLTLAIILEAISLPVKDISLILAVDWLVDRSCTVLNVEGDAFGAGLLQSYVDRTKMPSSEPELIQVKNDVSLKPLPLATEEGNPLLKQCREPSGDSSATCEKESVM
Test: whole-cell voltage clamp: alanine-induced anion currents
Type: cell-based

Km: 160 ± 50 µM
SMILES: C[C@H](N)C(=O)O [alanine]
